Patent US6376710B2, “Amidine compounds and their use as pesticides” (Sumitomo Chemical Co., Ltd., priority 2000, dated 2002)
Read-outs that look alike come from different tables or passages of the source.

Experiments:
Assay type in all cases: in vivo
[1] = system: common mosquito (Culex pipiens pallens); assay: Test Example 4: treated water, common mosquito final-instar larvae, mortality; conditions: 192 h
[2] = system: house fly (Musca domeestica); assay: Test Example 3: treated filter paper with sucrose bait, house fly female adults, mortality; conditions: 24 h
Experimental: On the bottom of a polyethylene cup of 5.5 cm in diameter was placed a filter paper of the same size, to which a water dilution (500 ppm) of each of the formulations obtained from present compounds 1, 2, 3, 4, 5, 6, 7, 8, 9, 10, 11, 12, 13, 14, 15, 16, 17, 18, 19, 20, 21, 25, 26, 27, 28, 29, 32, 33, 34, 35, 36, 37, 38, 39, 40, 41, 42, 43, 44, 45, 47, 51, 52, 53, 54, 55, 60, and 61 according to Formulation Example 1 was added dropwise in an amount of 0.7 ml, and the cup was uniformly charged with about 30 mg of sucrose as a bait. Ten female adults of house fly (Musca domeestica) were set free in each cup, which was then kept covered. After 1 day, their survival was examined to determine the mortality.

[3] = system: German cockroach (Blattella germanica); assay: Test Example 2: treated filter paper with sucrose bait, German cockroach male adults, mortality; conditions: 144 h
[4] = active ingredient 3.5 ppm in ion-exchanged water (0.7 ml of 500 ppm dilution), final-instar larvae, after 8 days, read-out: mortality
[5] = water dilution (500 ppm) of flowable (Formulation Example 1), 0.7 ml on filter paper, female adults, after 1 day, read-out: mortality
[6] = water dilution (500 ppm) of flowable (Formulation Example 1), 0.7 ml on filter paper, male adults, after 6 days, read-out: mortality

NC(=Nc1c(Cl)cc(C(F)(F)F)cc1[N+](=O)[O-])C(F)(F)C(F)(F)C(F)(F)F [present compound 32, N-(2-Chloro-6-nitro-4-trifluoromethylphenyl)-2,2,3,3,4,4,4-heptafluorobutyramidine]
100%: mortality at 3.5 ppm [1, 4] | mortality at 500 µg/mL [2, 5] | mortality at 500 µg/mL [3, 6]

NC(=Nc1c([N+](=O)[O-])cc(C(F)(F)F)cc1[N+](=O)[O-])C(F)(Cl)Cl [present compound 34, 2,2-Dichloro-N-(2,6-dinitro-4-trifluoromethylphenyl)-2-fluoroacetamidine]
100%: mortality at 3.5 ppm [1] | mortality at 500 µg/mL [2] | mortality at 500 µg/mL [3]

NC(=Nc1c([N+](=O)[O-])cc(C(F)(F)F)cc1[N+](=O)[O-])C(F)(F)C(F)(F)Cl [present compound 35, 3-Chloro-N-(2,6-dinitro-4-trifluoromethylphenyl)-2,2,3,3-tetrafluoropropionamidine]
100%: mortality at 3.5 ppm [1] | mortality at 500 µg/mL [2] | mortality at 500 µg/mL [3]

CC(F)(F)C(N)=Nc1c([N+](=O)[O-])cc(C(F)(F)F)cc1[N+](=O)[O-] [present compound 36, 2,2-Difluoro-N-(2,6-dinitro-4-trifluoromethylphenyl)propionamidine]
100%: mortality at 3.5 ppm [1] | mortality at 500 µg/mL [2] | mortality at 500 µg/mL [3]

NC(=Nc1c([N+](=O)[O-])cc(C(F)(F)F)cc1[N+](=O)[O-])C(F)(F)C(F)(Cl)C(F)(F)Cl (stereo not drawn) [present compound 37, 3,4-Dichloro-N-(2,6-dinitro-4-trifluoromethylphenyl)-2,2,3,4,4-pentafluorobutyramidine]
100%: mortality at 3.5 ppm [1] | mortality at 500 µg/mL [2] | mortality at 500 µg/mL [3]

NC(=Nc1c([N+](=O)[O-])cc(C(F)(F)F)cc1[N+](=O)[O-])C(F)(F)C(F)(F)C(F)(F)C(F)F [present compound 38, N-(2,6-Dinitro-4-trifluoromethylphenyl)-2,2,3,3,4,4,5,5-octafluoropentanamidine]
100%: mortality at 3.5 ppm [1] | mortality at 500 µg/mL [2] | mortality at 500 µg/mL [3]

NC(=Nc1c([N+](=O)[O-])cc(C(F)(F)F)cc1[N+](=O)[O-])C(F)(F)C(F)(F)Br [present compound 39, 3-Bromo-N-(2,6-dinitro-4-trifluoromethylphenyl)-2,2,3,3-tetrafluoropropionamidine]
100%: mortality at 3.5 ppm [1] | mortality at 500 µg/mL [2] | mortality at 500 µg/mL [3]

NC(=Nc1c([N+](=O)[O-])cc(C(F)(F)F)cc1[N+](=O)[O-])C(F)(Cl)C(F)(F)Br (stereo not drawn) [present compound 40, 3-Bromo-2-chloro-N-(2,6-dinitro-4-trifluoromethylphenyl)-2,3,3-trifluoropropionamidine]
100%: mortality at 3.5 ppm [1] | mortality at 500 µg/mL [2] | mortality at 500 µg/mL [3]

COC(F)(C(N)=Nc1c([N+](=O)[O-])cc(C(F)(F)F)cc1[N+](=O)[O-])C(F)(F)F (stereo not drawn) [present compound 41, N-(2,6-Dinitro-4-trifluoromethylphenyl)-2-methoxy-2,3,3,3-tetrafluoropropionamidine]
100%: mortality at 3.5 ppm [1] | mortality at 500 µg/mL [2] | mortality at 500 µg/mL [3]

NC(=Nc1c([N+](=O)[O-])cc(C(F)(F)C(F)(F)F)cc1[N+](=O)[O-])C(F)(F)C(F)(F)C(F)(F)F [present compound 42, N-(2,6-Dinitro-4-pentafluoroethylphenyl)-2,2,3,3,4,4,4-heptafluorobutyramidine]
100%: mortality at 3.5 ppm [1] | mortality at 500 µg/mL [2] | mortality at 500 µg/mL [3]

NC(=Nc1c([N+](=O)[O-])cc(C(F)(F)C(F)(F)F)cc1[N+](=O)[O-])C(F)(F)C(F)(F)F [present compound 43, N-(2,6-Dinitro-4-pentafluoroethylphenyl)-2,2,3,3,3-pentafluoropropionamidine]
100%: mortality at 3.5 ppm [1] | mortality at 500 µg/mL [2] | mortality at 500 µg/mL [3]

NC(=Nc1c([N+](=O)[O-])cc(C(F)(F)F)cc1[N+](=O)[O-])C(F)(F)C(F)C(F)(F)F (stereo not drawn) [present compound 44, N-(2,6-Dinitro-4-trifluoromethylphenyl)-2,2,3,4,4,4-hexafluorobutyramidine]
100%: mortality at 3.5 ppm [1] | mortality at 500 µg/mL [2] | mortality at 500 µg/mL [3]

NC(=Nc1c([N+](=O)[O-])cc(OC(F)(F)F)cc1[N+](=O)[O-])C(F)(F)C(F)(F)C(F)(F)F [present compound 45, N-(2,6-Dinitro-4-trifluoromethoxyphenyl)-2,2,3,3,4,4,4-heptafluorobutyramidine]
100%: mortality at 3.5 ppm [1] | mortality at 500 µg/mL [2] | mortality at 500 µg/mL [3]

NC(=Nc1c([N+](=O)[O-])cc(C(F)(F)C(F)(F)C(F)(F)F)cc1[N+](=O)[O-])C(F)(F)C(F)(F)F [present compound 47, N-(2,6-Dinitro-4-heptafluoropropylphenyl)-2,2,3,3,3-pentafluoropropionamidine]
100%: mortality at 3.5 ppm [1] | mortality at 500 µg/mL [2] | mortality at 500 µg/mL [3]

CSC(F)(F)C(N)=Nc1c([N+](=O)[O-])cc(C(F)(F)F)cc1[N+](=O)[O-] [present compound 51, N-(2,6-Dinitro-4-trifluoromethylphenyl)-2,2-difluoro-2-methylthioacetamidine]
100%: mortality at 3.5 ppm [1] | mortality at 500 µg/mL [2] | mortality at 500 µg/mL [3]

CN(C)C(=Nc1c(Cl)cc(C(F)(F)F)cc1Cl)C(F)(F)C(F)(F)F [present compound 53, N′-(2,6-Dichloro-4-trifluoromethylphenyl)-2,2,3,3,3-pentafluoro-N,N-dimethylpropionamidine]
100%: mortality at 3.5 ppm [1] | mortality at 500 µg/mL [2] | mortality at 500 µg/mL [3]

CN(C)C(=Nc1c(Cl)cc(C(F)(F)F)cc1Cl)C(F)(F)Cl [present compound 54, 2-Chloro-N′-(2,6-dichloro-4-trifluoromethylphenyl)-2,2-difluoro-N,N-dimethylacetamidine]
100%: mortality at 3.5 ppm [1] | mortality at 500 µg/mL [2] | mortality at 500 µg/mL [3]

CNC(=Nc1c(Cl)cc(C(F)(F)F)cc1Cl)C(F)(F)F [present compound 55, N′-(2,6-Dichloro-4-trifluoromethylphenyl)-2,2,2-trifluoro-N-methylacetamidine]
100%: mortality at 3.5 ppm [1] | mortality at 500 µg/mL [2] | mortality at 500 µg/mL [3]

COC(=O)NC(=Nc1c(Cl)cc(C(F)(F)F)cc1Cl)C(F)(F)C(F)(F)F [present compound 60, [1-(2,6-dichloro-4-trifluoromethylphenylimino)-2,2,3,3,3-pentafluoropropyl]carbamic acid methyl ester]
100%: mortality at 3.5 ppm [1, 4] | mortality at 500 µg/mL [2, 5] | mortality at 500 µg/mL [3, 6]

CC(=O)NC(=Nc1c(Cl)cc(C(F)(F)F)cc1Cl)C(F)(F)C(F)(F)F [present compound 61, N-[1-(2,6-dichloro-4-trifluoromethylphenylimino)-2,2,3,3,3-pentafluoropropyl]-acetamide]
100%: mortality at 3.5 ppm [1] | mortality at 500 µg/mL [2] | mortality at 500 µg/mL [3]
